Data from patent publication US10947223B2, “Substituted oxazines as beta-secretase inhibitors” (AMGEN INC., priority 2016, dated 2021).

How the values were obtained:
human recombinant BACE2 = human recombinant BACE2 (Homo sapiens (Human), UniProt Q9Y5Z0); test: In vitro enzymatic BACE2 FRET assay; type: biochemical; conditions: pH 4.5, read-out: BACE2 Enzyme IC50
Method: (§1) In Vitro Enzymatic BACE1 and BACE2 FRET (Fluorescence Resonance Energy Transfer) Assays
(§2) The cDNAs for both human recombinant BACE1 and 2 with C-terminal 6-His Tags were cloned into transient protein expression vectors, which were subsequently transfected into mammalian cell lines. These recombinant proteins were further purified using Ni-NTA affinity chromatography (Qiagen). The assay buffer used in these screens was 0.05 M acetate, pH 4.5, 8% DMSO final, 100 μM genapol (which is a nonionic detergent, below its Critical Micelle Concentration). The β-secretase enzyme (0.02 nM for BACE1 and 0.64 nM for BACE2), which was pre-incubated for one hour with the test compound, typically in about 1 uL of DMSO according to a serial dilution, was added thereto. The assay was effectively started by the addition of FRET substrate (50 nM) and the combination was incubated for one hour. The FRET assay was terminated by the addition of tris buffer, which raised the pH to neutrality, and the fluorescence was determined. The FRET substrate was a peptide with commercially available fluorophore and quencher, on opposite sides of the BACE cleavage site. The specific FRET substrate used in this assay was made by Amgen in-house. Commercially available FRET substrates, for example, the FRET substrate offered with the BACE1 FRET Assay Kit sold by ThermoFisher Scientific (Catalog Number P2985), may be used in this assay with the appropriate modifications, which are within the purview of the ability of a person with ordinary skill in the art. Proteolytic cleavage of the FRET substrate released quenching of fluorescence (excitation 488 nm and emission 590 nm).

BACE1 [1] = biological target: T1, BACE1 (Homo sapiens (Human), UniProt P56817); test: In vitro BACE1 cell-based assay (Aβ40 in conditioned medium, HTRF); conditions: Aβ40 in conditioned medium of cells expressing APP, 24 h
Method: In Vitro BACE1 Cell-Based Assay
The cell-based assay measures inhibition or reduction of Aβ40 in conditioned medium of test compound treated cells expressing amyloid precursor protein. Cells stably expressing Amyloid Precursor Protein (APP) were plated at a density of 45K cells/well in 384 well plates (Corning/BioCoat 354663). The test compounds were then added to cells in 22-point dose response concentrations with the starting concentration being 62.5 μM. The compounds were diluted from stock solutions in DMSO and the final DMSO concentration of the test compounds on cells was 0.625%. The cells were cultivated overnight at 37° C. and 5% CO2 in DMEM supplemented with 10% FBS. After 24 h of incubation with the test compounds, the conditioned media was collected and the Aβ40 levels were determined using HTRF (Homogeneous Time Resolved Fluorescence). The IC50 of the compound was calculated from the percent of control or percent inhibition of Aβ 40 as a function of the concentration of the test compound.
The HTRF to detect Aβ40 was performed in 384 well plates (Costar 3658). The antibody pair that were used to detect Aβ 40 from cell supernatants were ConfAb40 antibody (Amgen in-house) and biotinylated 6E10 (BIOLEGEND). As an alternative to ConfAb40, a commercially available antibody, Anti-beta Amyloid 1-40 antibody [BDI350] from Abcam, Cambridge, Mass. 02139-1517 (Product code: ab20068), may be used in this assay. The concentrations were 0.35 μg/mL of ConfAb40 antibody and 1.33 μg/mL of 6E10-biotinylated antibody, as well as 4.5 μg/mL of Streptavidin Allophycocyanin Conjugate (ThermoFisher Scientific) in HTRF Buffer ([…], 1% BSA, 0.5% Tween 20).
The conditioned media was incubated with above antibodies and Streptavidin Allophycocyanin Conjugate for 30-60 minutes at 23° C. The final readout was performed on Envision from PerkinElmer.
Target sequence in this assay (P56817 46-501, species assumed): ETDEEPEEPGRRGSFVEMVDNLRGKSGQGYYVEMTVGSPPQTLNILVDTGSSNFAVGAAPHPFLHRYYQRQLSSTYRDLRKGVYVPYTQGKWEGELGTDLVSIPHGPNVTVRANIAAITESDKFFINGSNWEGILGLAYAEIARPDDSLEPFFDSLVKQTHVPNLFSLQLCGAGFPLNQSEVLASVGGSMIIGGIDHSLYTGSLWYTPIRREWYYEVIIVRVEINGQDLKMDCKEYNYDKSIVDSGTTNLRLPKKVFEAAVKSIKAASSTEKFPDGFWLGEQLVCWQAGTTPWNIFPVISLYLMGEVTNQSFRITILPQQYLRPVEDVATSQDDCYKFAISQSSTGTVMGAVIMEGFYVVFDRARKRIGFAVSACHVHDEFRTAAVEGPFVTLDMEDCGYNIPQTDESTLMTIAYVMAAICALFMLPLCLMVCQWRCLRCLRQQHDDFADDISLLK

Recombinant CatD = Recombinant CatD (Homo sapiens (Human), UniProt P07339); test: In vitro enzymatic Cathepsin D (CatD) FRET assay; type: biochemical; conditions: pH 3.5, read-out: CatD Enzyme IC50
Method: In Vitro Enzymatic Cathepsin D (CatD) FRET Assay
Recombinant CatD was expressed in CHO cells. The assay buffer for CatD was 0.05 M citrate pH 3.5, 10% DMSO final, 5 mM CHAPS. The CatD enzyme (9 nM) was pre-incubated for one hour with inhibitors, typically in about 1 uL of DMSO according to a serial dilution, is added thereto. The assays was effectively started by the addition of different FRET substrates (20 nM for CatD) and the combination was incubated for one hour. The FRET assay was terminated with by addition of tris buffer, which raises the pH to neutrality, and the fluorescence was determined. The FRET substrate was a peptide with commercially available fluorophore and quencher, on opposite sides of the CatD cleavage site. The CatD substrate peptide sequence was based on sequence #1 of Table 1 from Gulnik et al., FEBS Lett. 413(2):379-384 (1997). Proteolytic cleavage of the FRET substrate released quenching of fluorescence (CatD excitation 500 nm and emission 580 nm).
The in vitro CatD FRET assay data for each of the Examples is provided in Table 2, conducted by the first procedure described above. […] Thus, with this surprising selectivity profile, the compounds provided herein are believed to minimize, reduce or completely eliminate any risk of retinal atrophy and abnormal development of the eye and of the retinal pigmented epithelium as it relates to the normal function and activity of CatD.

BACE1 [2] = biological target: T1, BACE1; test: In vitro enzymatic BACE1 FRET assay; type: biochemical; conditions: pH 4.5, read-out: BACE1 Enzyme IC50
Method: as §1, §2
Target sequence in this assay (P56817 46-501): as the sequence (P56817 46-501, species assumed) above

Chain of Recombinant CatD (P07339 65-412): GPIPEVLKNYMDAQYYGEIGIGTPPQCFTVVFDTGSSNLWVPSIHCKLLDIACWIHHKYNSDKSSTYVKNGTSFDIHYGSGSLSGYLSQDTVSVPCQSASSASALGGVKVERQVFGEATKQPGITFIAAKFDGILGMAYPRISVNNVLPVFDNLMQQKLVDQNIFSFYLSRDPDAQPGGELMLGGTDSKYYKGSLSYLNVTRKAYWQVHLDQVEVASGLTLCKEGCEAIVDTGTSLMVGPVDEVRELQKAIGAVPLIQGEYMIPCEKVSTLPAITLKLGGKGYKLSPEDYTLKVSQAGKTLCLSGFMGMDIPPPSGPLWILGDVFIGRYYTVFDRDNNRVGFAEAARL
Chain of human recombinant BACE2 (Q9Y5Z0 63-518): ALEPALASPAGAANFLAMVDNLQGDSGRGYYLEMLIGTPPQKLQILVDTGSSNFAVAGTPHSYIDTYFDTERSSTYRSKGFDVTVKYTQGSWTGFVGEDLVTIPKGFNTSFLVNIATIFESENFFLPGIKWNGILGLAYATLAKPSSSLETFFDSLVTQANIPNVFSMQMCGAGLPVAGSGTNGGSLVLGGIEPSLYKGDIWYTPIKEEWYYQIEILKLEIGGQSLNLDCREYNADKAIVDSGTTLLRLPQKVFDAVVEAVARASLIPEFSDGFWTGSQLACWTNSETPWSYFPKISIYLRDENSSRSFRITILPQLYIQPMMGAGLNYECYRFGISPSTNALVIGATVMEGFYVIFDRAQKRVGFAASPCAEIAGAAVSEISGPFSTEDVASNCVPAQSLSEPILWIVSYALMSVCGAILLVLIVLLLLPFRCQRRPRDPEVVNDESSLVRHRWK

SMILES | IC50 (human recombinant BACE2) | IC50 (BACE1 [1]) | IC50 (Recombinant CatD) | IC50 (BACE1 [2])
C[C@@]1(c2nc(/C=C(\F)c3ccc(C#N)cn3)ccc2F)CO[C@@](C)(C(F)(F)F)C(N)=N1 [Example 117, 6-((Z)-2-(6-((3R,6R)-5-amino-3,6-dimethyl-6-(trifluoromethyl)-3,6-dihydro-2H-1,4-oxazin-3-yl)-5-fluoropyridin-2-yl)-1-fluorovinyl)nicotinonitrile] | 0.853 µM | 0.09 µM | 121 µM | 0.149 µM
N#Cc1ccc(/C(F)=C/c2ccc(F)c([C@@]3(C(F)F)N=C(N)O[C@@H]4C[C@@H]43)c2)nc1 [Example 102, 6-((Z)-2-(3-((1R,5S,6R)-3-amino-5-(difluoromethyl)-2-oxa-4-azabicyclo[4.1.0]hept-3-en-5-yl)-4-fluorophenyl)-1-fluorovinyl)nicotinonitrile] | 1.62 µM | 0.344 µM | 222 µM | 0.152 µM
C[C@]1(c2cc(/C=C(\F)c3ccc(C#N)cn3)ccc2F)N=C(N)OC[C@@H]1OCC(F)(F)F [Example 109, 6-((Z)-2-(3-((4R,5R)-2-amino-4-methyl-5-(2,2,2-trifluoroethoxy)-5,6-dihydro-4H-1,3-oxazin-4-yl)-4-fluorophenyl)-1-fluorovinyl)nicotinonitrile] | 3.87 µM | 0.014 µM | 1190 µM | 0.125 µM
C[C@]1(c2cc(/C=C(\F)c3cnc(C#N)cn3)ccc2F)N=C(N)OC[C@@H]1OCC(F)(F)F [Example 112, 5-((Z)-2-(3-((4R,5R)-2-amino-4-methyl-5-(2,2,2-trifluoroethoxy)-5,6-dihydro-4H-1,3-oxazin-4-yl)-4-fluorophenyl)-1-fluorovinyl)pyrazine-2-carbonitrile] | 6.36 µM | 0.027 µM | 970 µM | 0.119 µM
C[C@]1(c2nc(/C=C(\F)c3ccc(C#N)cn3)ccc2F)N=C(N)OCC1(F)F [Example 116, (R,Z)-6-(2-(6-(2-amino-5,5-difluoro-4-methyl-5,6-dihydro-4H-1,3-oxazin-4-yl)-5-fluoropyridin-2-yl)-1-fluorovinyl)nicotinonitrile] | 11.4 µM | 0.676 µM | > 400 µM | 1.05 µM
C#CCOc1cnc(/C(F)=C/c2ccc(F)c([C@@]3(C)N=C(N)OCC3(F)F)c2)cn1 [Example 115, (R,Z)-5,5-difluoro-4-(2-fluoro-5-(2-fluoro-2-(5-(prop-2-yn-1-yloxy)pyrazin-2-yl)vinyl)phenyl)-4-methyl-5,6-dihydro-4H-1,3-oxazin-2-amine] | 5.84 µM | 4.67 µM | 119 µM | 0.283 µM
C[C@]1(c2cc(/C=C(\F)c3ccc(C#N)cn3)ccc2F)N=C(N)OCC1(F)F [Example 114, (R,Z)-6-(2-(3-(2-amino-5,5-difluoro-4-methyl-5,6-dihydro-4H-1,3-oxazin-4-yl)-4-fluorophenyl)-1-fluorovinyl)nicotinonitrile] | 2.73 µM | 2.66 µM | > 400 µM | 0.256 µM
C#CCOc1cnc(/C(F)=C/c2ccc(F)c([C@@]3(C)N=C(N)OC[C@@H]3OCC(F)(F)F)c2)cn1 [Example 111, (4R,5R)-4-(2-fluoro-5-((Z)-2-fluoro-2-(5-(prop-2-yn-1-yloxy)pyrazin-2-yl)vinyl)phenyl)-4-methyl-5-(2,2,2-trifluoroethoxy)-5,6-dihydro-4H-1,3-oxazin-2-amine] | 16 µM | 0.059 µM | 664 µM | 0.152 µM
CC#CCOc1cnc(/C(F)=C/c2ccc(F)c([C@@]3(C)N=C(N)OC[C@@H]3OCC(F)(F)F)c2)cn1 [Example 113, (4R,5R)-4-(5-((Z)-2-(5-(but-2-yn-1-yloxy)pyrazin-2-yl)-2-fluorovinyl)-2-fluorophenyl)-4-methyl-5-(2,2,2-trifluoroethoxy)-5,6-dihydro-4H-1,3-oxazin-2-amine] | 17.1 µM | 0.048 µM | 233 µM | 0.052 µM
C[C@]1(c2cc(/C=C(\F)c3cnc(Cl)cn3)ccc2F)N=C(N)OC[C@@H]1OCC(F)(F)F [Example 110, (4R,5R)-4-(5-((Z)-2-(5-chloropyrazin-2-yl)-2-fluorovinyl)-2-fluorophenyl)-4-methyl-5-(2,2,2-trifluoroethoxy)-5,6-dihydro-4H-1,3-oxazin-2-amine] | 1.51 µM | 0.09 µM | 524 µM | 0.341 µM

These reach a lower IC50 (human recombinant BACE2). Values come first.

IC50 (human recombinant BACE2) | IC50 (BACE1 [1]) | IC50 (Recombinant CatD) | IC50 (BACE1 [2]) | SMILES
0.421 µM | 1.12 µM | 215 µM | 0.954 µM | NC1=N[C@@](c2cc(/C=C(\F)c3ccc(Cl)cn3)ccc2F)(C(F)F)[C@H]2C[C@H]2O1 [Example 101, (1R,5S,6R)-5-(5-((Z)-2-(5-chloropyridin-2-yl)-2-fluorovinyl)-2-fluorophenyl)-5-(difluoromethyl)-2-oxa-4-azabicyclo[4.1.0]hept-3-en-3-amine]
0.095 µM | 0.152 µM | 204 µM | 0.026 µM | C[C@@]1(c2cc(/C=C(\F)c3ccc(C#N)cn3)ccc2F)CO[C@@](C)(C(F)(F)F)C(N)=N1 [Example 104, 6-((Z)-2-(3-((3R,6R)-5-amino-3,6-dimethyl-6-(trifluoromethyl)-3,6-dihydro-2H-1,4-oxazin-3-yl)-4-fluorophenyl)-1-fluorovinyl)nicotinonitrile]
0.033 µM | 0.663 µM | 39.3 µM | 0.118 µM | C[C@@]1(c2cc(/C=C(\F)c3cnc(Cl)cn3)ccc2F)CO[C@@](C)(C(F)(F)F)C(N)=N1 [Example 108, (2R,5R)-5-(5-((Z)-2-(5-chloropyrazin-2-yl)-2-fluorovinyl)-2-fluorophenyl)-2,5-dimethyl-2-(trifluoromethyl)-5,6-dihydro-2H-1,4-oxazin-3-amine]
0.564 µM | 0.948 µM | 63.9 µM | 0.257 µM | NC1=N[C@@](c2cc(/C=C(\F)c3ccc(Br)cn3)ccc2F)(C(F)F)[C@H]2C[C@H]2O1 [Example 100, (1R,5S,6R)-5-(5-((Z)-2-(5-bromopyridin-2-yl)-2-fluorovinyl)-2-fluorophenyl)-5-(difluoromethyl)-2-oxa-4-azabicyclo[4.1.0]hept-3-en-3-amine]
0.273 µM | 0.13 µM | 415 µM | 0.046 µM | C[C@@]1(c2cc(/C=C(\F)c3cnc(C#N)cn3)ccc2F)CO[C@@](C)(C(F)(F)F)C(N)=N1 [Example 105, 5-((Z)-2-(3-((3R,6R)-5-amino-3,6-dimethyl-6-(trifluoromethyl)-3,6-dihydro-2H-1,4-oxazin-3-yl)-4-fluorophenyl)-1-fluorovinyl)pyrazine-2-carbonitrile]
